Biological target: T1, Full-length glucokinase (beta cell isoform) (Homo sapiens, UniProt P35557)
T1 construct: Full-length glucokinase (beta cell isoform) was His-tagged at N-terminus; His tag (N); made in house
T1 sequence (P35557 1-465): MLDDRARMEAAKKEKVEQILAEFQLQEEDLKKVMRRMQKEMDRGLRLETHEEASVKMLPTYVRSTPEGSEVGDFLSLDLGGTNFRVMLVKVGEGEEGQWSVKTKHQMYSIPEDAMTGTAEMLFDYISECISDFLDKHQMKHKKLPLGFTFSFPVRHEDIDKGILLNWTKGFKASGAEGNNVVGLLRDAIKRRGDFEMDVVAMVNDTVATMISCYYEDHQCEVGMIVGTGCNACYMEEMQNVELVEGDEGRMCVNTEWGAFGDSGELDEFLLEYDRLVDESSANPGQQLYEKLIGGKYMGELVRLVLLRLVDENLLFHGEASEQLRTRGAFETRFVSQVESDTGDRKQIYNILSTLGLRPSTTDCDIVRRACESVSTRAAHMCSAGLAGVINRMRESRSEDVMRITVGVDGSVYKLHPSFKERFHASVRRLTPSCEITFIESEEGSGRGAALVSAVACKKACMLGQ
Test: Glucokinase biochemical assay (PK/LDH-coupled, NADH depletion at 340 nm): % activation, EC50, % max activation
Settings: 5 mM glucose; for activation at 10 µM: 10 uM compound, % Activation=(Va/Vo−1)×100, read-out: % Activation at 10 uM; for EC50: GK activation, read-out: EC50; for Emax: fitted maximum activation, read-out: % Max Activation
How it was run: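 Activation expressed as (Va/Vo−1)×100, where initial rates with and without compound come from NADH depletion at 340 nm over 200–900 s. Enzyme is His-tagged human beta-cell GK, full length, run at room temperature in HEPES buffer with 1 mM ATP and 5 mM glucose. DMSO 1%.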

With `Cn1ccc(NC(=O)c2cc(Oc3ccc(C(=O)N4CCC4)c(F)c3)cc3c2CC(C)(C)O3)n1` [Example 197, 6-[4-(Azetidine-1-carbonyl)-3-fluoro-phenoxy]-2,2-dimethyl-2,3-dihydro-benzofuran-4-carboxylic acid (1-methyl-1H-pyrazol-3-yl)-amide] the activation at 10 µM was 77.6% and the EC50 was greater than 10000 nM.
Work on `Cc1csc2cc(C(=O)Nc3ccn(C)n3)cc(O[C@@H](C)Cc3ccccc3)c12` [Example 354, 3-Methyl-4-[(1S)-1-methyl-2-phenylethoxy]-N-(1-methyl-1H-pyrazol-3-yl)-1-benzothiophene-6-carboxamide] yielded an activation at 10 µM of 3.5%.
`COc1ccnc(NC(=O)c2cc(Oc3ccc(S(C)(=O)=O)cc3)c3c(c2)OC(C)(C)C3)c1` [Example 18, 4-(4-Methanesulfonyl-phenoxy)-2,2-dimethyl-2,3-dihydro-benzofuran-6-carbo-xylic acid(4-methoxy-pyridin-2-yl)-amide] was tested, and the activation at 10 µM was 105%, the EC50 was 950 nM and the Emax was 114%.
In the case of `C[C@@H](Cc1ccccc1)Oc1cc(C(=O)Nc2ccn(C)n2)cc2c1CC(C)(C)O2` [Example 78, 2,2-Dimethyl-4-((S)-1-methyl-2-phenyl-ethoxy)-2,3-dihydro-benzofuran-6-carboxylic acid (1-methyl-1H-pyrazol-3-yl)-amide], the activation at 10 µM is reported as 139%, the EC50 is reported as 1470 nM and the Emax is reported as 149%.
`Cc1ccc(NC(=O)c2cc(Oc3ccc(S(C)(=O)=O)cc3)c3cc(C(=O)N4CCC4)oc3c2)nc1` [Example 290, 2-(Azetidin-1-ylcarbonyl)-N-(5-methylpyridin-2-yl)-4-[4-(methylsulfonyl)-phenoxy]-1-benzofuran-6-carboxamide] showed an activation at 10 µM of 12.8%.
Compound `CC1(C)Cc2c(Oc3ccc(S(C)(=O)=O)cc3)cc(C(=O)Nc3ccc(C(N)=O)cn3)cc2O1` [Example 15, 6-{[4-(4-Methanesulfonyl-phenoxy)-2,2-dimethyl-2,3-dihydro-benzofuran-6-carbonyl]-amino}-nicotinamide] has an activation at 10 µM of 4.3%.
With `Cn1ccc(NC(=O)c2cc(Oc3ccc(C(=O)NCC(F)F)c(F)c3)c3c(c2)OC(C)(C)C3)n1` [Example 76, 4-[4-(2,2-Difluoro-ethylcarbamoyl)-3-fluoro-phenoxy]-2,2-dimethyl-2,3-dihydro-benzofuran-6-carboxylic acid(1-methyl-1H-pyrazol-3-yl)-amide] the activation at 10 µM was 203%, the EC50 was 470 nM and the Emax was 206%.
In the case of `Cn1ccc(NC(=O)c2cc(Oc3ccc(C(=O)N4CC[C@H](O)C4)c(F)c3)c3c(c2)OC(C)(C)C3)n1` [Example 62, 4-[3-Fluoro-4-((S)-3-hydroxy-pyrrolidine-1-carbonyl)-phenoxy]-2,2-dimethyl-2,3-dihydro-benzofuran-6-carboxylic acid(1-methyl-1H-pyrazol-3-yl)-amide], the activation at 10 µM is reported as 153%, the EC50 is reported as 700 nM and the Emax is reported as 165%.
In the case of `Cc1ccc(NC(=O)c2cc(Oc3ccc(S(C)(=O)=O)cc3)c3cc(C)sc3c2)nc1` [Example 359, 4-(4-Methanesulfonyl-phenoxy)-2-methyl-benzo[b]thiophene-6-carboxylic acid (5-methyl-pyridin-2-yl)-amide], the activation at 10 µM is reported as 69.9%, the EC50 is reported as 190 nM and the Emax is reported as 70%.
`CC(Oc1cc(C(=O)Nc2ccn(C)n2)cc2c1CC(C)(C)O2)c1cnccn1` (stereo not shown) [Example 82, 2,2-Dimethyl-4-(1-pyrazin-2-yl-ethoxy)-2,3-dihydro-benzofuran-6-carboxylic acid (1-methyl-1H-pyrazol-3-yl)-amide] showed an activation at 10 µM of 110%, an EC50 of 5100 nM and an Emax of 135%.
Work on `CN(C)C1CN(C(=O)c2ccc(Oc3cc(C(=O)Nc4ccn(C)n4)cc4c3CC(C)(C)O4)cc2)C1` [Example 49, 4-[4-(3-Dimethylamino-azetidine-1-carbonyl)-phenoxy]-2,2-dimethyl-2,3-dihydro-benzofuran-6-carboxylic acid(1-methyl-1H-pyrazol-3-yl)-amide] yielded an activation at 10 µM of 133%, an EC50 of 455 nM and an Emax of 147%.
For `CN1CCN(C(=O)c2ccc(Oc3cc(C(=O)Nc4ccn(C)n4)cc4c3CC(C)(C)O4)c(F)c2)CC1` [Example 42, 4-[2-Fluoro-4-(4-methyl-piperazine-1-carbonyl)-phenoxy]-2,2-dimethyl-2,3-dihydro-benzofuran-6-carboxylic acid(1-methyl-1H-pyrazol-3-yl)-amide], the activation at 10 µM was 128%, the EC50 was 2300 nM and the Emax was 139%.
`CN(C)C(=O)c1ncc(Oc2cc(C(=O)Nc3ccn(C)n3)cc3c2CC(C)(C)O3)cc1F` [Example 178, 5-[2,2-Dimethyl-6-(1-methyl-1H-pyrazol-3-ylcarbamoyl)-2,3-dihydro-benzofuran-4-yloxy]-3-fluoro-pyridine-2-carboxylic acid dimethylamide] was tested, and the activation at 10 µM was 198%, the EC50 was 90 nM and the Emax was 147%.
With `Cn1ccc(NC(=O)c2cc(Oc3ccc(S(C)(=O)=O)cc3Cl)c3c(c2)OC(C)(C)C3)n1` [Example 137, 4-(2-Chloro-4-methanesulfonyl-phenoxy)-2,2-dimethyl-2,3-dihydro-benzofuran-6-carboxylic acid (1-methyl-1H-pyrazol-3-yl)-amide] the activation at 10 µM was 212%, the EC50 was 270 nM and the Emax was 218%.
Work on `COCC1(C)Cc2c(Oc3cc(F)ccc3S(C)(=O)=O)cc(C(=O)Nc3ccn(C)n3)cc2O1` (stereo not shown) [Example 238, 4-(5-Fluoro-2-methanesulfonyl-phenoxy)-2-methoxymethyl-2-methyl-2,3-dihydro-benzofuran-6-carboxylic acid (1-methyl-1H-pyrazol-3-yl)-amide] yielded an activation at 10 µM of 89.8% and an EC50 greater than 10000 nM.
Compound `Cn1ccc(NC(=O)c2cc(Oc3ccc(S(=O)(=O)C4CC4)cc3)c3c(c2)OC(C)(CO)C3)n1` (stereo not shown) [Example 245, 4-(4-Cyclopropanesulfonyl-phenoxy)-2-hydroxymethyl-2-methyl-2,3-dihydro-benzofuran-6-carboxylic acid (1-methyl-1H-pyrazol-3-yl)-amide] has an activation at 10 µM of 196%, an EC50 of 130 nM and an Emax of 236%.
`CCNC(=O)c1ncc(Oc2cc(C(=O)Nc3ccn(C)n3)cc3c2CC(C)(C)O3)cc1F` [Example 177, 5-[2,2-Dimethyl-6-(1-methyl-1H-pyrazol-3-ylcarbamoyl)-2,3-dihydro-benzofuran-4-yloxy]-3-fluoro-pyridine-2-carboxylic acid ethylamide] showed an activation at 10 µM of 204%, an EC50 of 350 nM and an Emax of 189%.
With `Cn1ccc(NC(=O)c2cc(Oc3ccc(S(C)(=O)=O)cc3)c3sccc3c2)n1` [Example 364, 7-(4-(Methylsulfonyl)phenoxy)-N-(1-methyl-1H-pyrazol-3-yl)benzo-[b]-thiophene-5-carboxamide] the activation at 10 µM was 45.8% and the EC50 was greater than 10000 nM.
Work on `CC1(C)Cc2c(Oc3ccc(S(C)(=O)=O)cc3)cc(C(=O)Nc3ccccn3)cc2O1` [Example 19, 4-(4-Methanesulfonyl-phenoxy)-2,2-dimethyl-2,3-dihydro-benzofuran-6-carbo-xylic acid pyridin-2-ylamide] yielded an activation at 10 µM of 139%, an EC50 of 370 nM and an Emax of 156%.
`Cn1ccc(NC(=O)c2cc(Oc3ccc(C(=O)N4CC(O)C4)c(F)c3)c3c(c2)OC(C)(C)C3)n1` [Example 55, 4-[3-Fluoro-4-(3-hydroxy-azetidine-1-carbonyl)-phenoxy]-2,2-dimethyl-2,3-dihydro-benzofuran-6-carboxylic acid(1-methyl-1H-pyrazol-3-yl)-amide] was tested, and the activation at 10 µM was 143%, the EC50 was 680 nM and the Emax was 129%.
`COCC(C)Oc1cc(C(=O)Nc2ccn(C)n2)cc2c1CC(C)(C)O2` (stereo not shown) [Example 84, 4-(2-Methoxy-1-methyl-ethoxy)-2,2-dimethyl-2,3-dihydro-benzofuran-6-carboxylic acid (1-methyl-1H-pyrazol-3-yl)-amide] showed an activation at 10 µM of 58.4% and an EC50 greater than 10000 nM.
Work on `Cc1cc2c(Oc3ccc(S(=O)(=O)N4CCC4)cc3)cc(C(=O)Nc3ccccn3)cc2o1` [Example 296, 4-(4-(Azetidin-1-ylsulfonyl)phenoxy)-2-methyl-N-(pyridin-2-yl)benzofuran-6-carboxamide] yielded an activation at 10 µM of 70%, an EC50 of 200 nM and an Emax of 77%.
`CN(C)S(=O)(=O)c1ccc(Oc2cc(C(=O)Nc3cnn(C)n3)cc3c2CC(C)(C)O3)cc1F` [Example 132, 4-(4-Dimethylsulfamoyl-3-fluoro-phenoxy)-2,2-dimethyl-2,3-dihydro-benzofuran-6-carboxylic acid (2-methyl-2H-[1,2,3]triazol-4-yl)-amide] showed an activation at 10 µM of 288%, an EC50 of 170 nM and an Emax of 280%.
Compound `Cc1cc2c(Oc3ccc(S(C)(=O)=O)cn3)cc(C(=O)Nc3cnn(C)n3)cc2o1` [Example 282, 2-Methyl-N-(2-methyl-2H-1,2,3-triazol-4-yl)-4-(5-(methylsulfonyl)pyridin-2-yloxy)benzofuran-6-carboxamide] has an activation at 10 µM of 140% and an EC50 greater than 10000 nM.
In the case of `Cn1ccc(NC(=O)c2cc(Oc3ccc(S(C)(=O)=O)cc3)c3cc(CO)oc3c2)n1` [Example 317, 2-(Hydroxymethyl)-N-(1-methyl-1H-pyrazol-3-yl)-4-[4-(methylsulfonyl)-phenoxy]-1-benzofuran-6-carboxamide], the activation at 10 µM is reported as 186%, the EC50 is reported as 1700 nM and the Emax is reported as 228%.
